According to patent US9936700B2, “Substituted quinoxaline derivatives as pest control agent” (BAYER CROPSCIENCE AKTIENGESELLSCHAFT, priority 2013, dated 2018):
Read-outs that look alike come from different tables or passages of the source.

What was measured:
[1] = log P by reversed-phase HPLC (EEC Directive 79/831 Annex V.A8); assay type: physicochemical; details: for chromatographic logP: reversed-phase C18 HPLC column
Description: NMR data and log P values: log P (HCOOH)=log P[a] log P (neutral)=log P[b]
^[a] […] Called log P (HCOOH) in the table.
^[b] […] Called log P (neutral) in the table.

Boophilus microplus = Boophilus microplus test (BOOPMI injection); assay type: in vivo; details: 20 μg/animal, injection into the abdomen, after 7 days
Method: Boophilus microplus test (BOOPMI injection) • Solvent: dimethyl sulfoxide To produce a suitable preparation of active compound, 10 mg of active compound are mixed with 0.5 ml of solvent and the concentrate is diluted with solvent to the desired concentration. The active compound solution is injected into the abdomen (Boophilus microplus), and the animals are transferred into dishes and stored in a climate-controlled room. Efficacy is assessed after 7 days by laying of fertile eggs. Eggs which are not visibly fertile are stored in a climate-controlled cabinet until the larvae hatch after about 42 days.

Meloidogyne incognita = details: 20 ppm, lettuce, after 14 days
Method: Meloidogvne incognita test (MELGIN)
• Solvent: 125.0 parts by weight of acetone
The lettuce seeds germinate and the plants develop. The galls develop on the roots.
After 14 days, the nematicidal efficacy in % is determined by the formation of galls.

Phaedon cochleariae = Phaedon cochleariae spray test (PHAECO); assay type: in vivo; details: 500 g/ha, Chinese cabbage leaf discs, after 7 days
Method: Phaedon cochleariae—spray test (PHAECO)
• Solvent: 78.0 parts by weight of acetone • 1.5 parts by weight of dimethylformamide • Emulsifier: 0.5 part by weight of alkylaryl polyglycol ether
After 7 days, the efficacy in % is determined. 100% means that all the beetle larvae have been killed; 0% means that no beetle larvae have been killed.

Myzus persicae = Myzus persicae spray test (MYZUPE); assay type: in vivo; details: Chinese cabbage leaf discs, after 6 days
Method: Myzus persicae—spray test (MYZUPE)
• Solvent: 78 parts by weight of acetone • 1.5 parts by weight of dimethylformamide • Emulsifier: 0.5 part by weight of alkylaryl polyglycol ether
After 6 days, the efficacy in % is determined. 100% means that all the aphids have been killed; 0% means that no aphids have been killed.

Bemisia tabaci = Bemisia tabaci spray test; assay type: in vivo; details: cotton plants, after 8 days
Method: Bemisia Tabaci—Spray Test
(§1) • Solvent: 7 parts by weight of dimethylformamide • Emulsifier: alkylaryl polyglycol ether
(§2) To produce further test concentrations, the preparation is diluted with emulsifier-containing water. If the addition of ammonium salts or/and penetrants is required, these are each added in a concentration of 1000 ppm to the formulation solution.
After 8 days, the efficacy in % is determined. 100% means that all the whiteflies have been killed; 0% means that none of the whiteflies have been killed.

Nilaparvata lugens [2] = details: 500 g/ha, rice plants, after 4 days
Method: (§3) Nilaparvata lugens—spray test
• Solvent: 52.5 parts by weight of acetone • 7 parts by weight of dimethylformamide • Emulsifier: alkylaryl polyglycol ether
To produce further test concentrations, the preparation is diluted with emulsifier-containing water.
After 4 days, the efficacy in % is determined. 100% means that all of the planthoppers have been killed; 0% means that none of the planthoppers have been killed.

Aphis gossypii = Aphis gossypii spray test; assay type: in vivo; details: 100 ppm, cotton plants, after 6 days
Method: Aphis gossypii—spray test
as §1, §2
After 6 days, the kill in % is determined. 100% means that all the aphids have been killed; 0% means that no aphids have been killed.

Nilaparvata lugens [3] = assay: Nilaparvata lugens spray test (solvent dimethylformamide, 7 days); assay type: in vivo; details: 20 ppm, rice plants, after 7 days
Method: as §3
If the addition of ammonium salts or/and penetrants is required, these are each added in a concentration of 1000 ppm to the formulation solution.
After 7 days, the efficacy in % is determined.

Nephotettix cincticeps = Nephotettix cincticeps test (NEPHCI); assay type: in vivo; details: 100 ppm, rice plants, after 14 days
Method: Nephotettix cincticeps test (NEPHCI)
In the event that addition of ammonium salts or/and penetrants (rapeseed oil methyl ester) is required, these are each pipetted in a concentration of 1000 ppm after the finished formulation solution has been diluted.
After 14 days, the kill in % is determined. 100% means that all leafhoppers have been killed; 0% means that none of the leafhoppers have been killed.

[4] = acidic range, pH 2.7, 0.1% aqueous formic acid/acetonitrile

Compound | logP [a] = log P (HCOOH) [1, 4] | logP [b] = log P (neutral) ([1]; neutral range, pH 7.8, aqueous ammonium hydrogencarbonate/acetonitrile) | efficacy (laying of fertile eggs) (Boophilus microplus) | nematicidal efficacy (formation of galls) (Meloidogyne incognita) | efficacy (beetle larvae killed) (Phaedon cochleariae) | efficacy (aphids killed) (Myzus persicae; 500 g/ha) | efficacy (whiteflies killed) (Bemisia tabaci; 100 ppm) | efficacy (planthoppers killed) (Nilaparvata lugens [2]) | chromatographic logP ([1]; acidic range, pH 2.7, 0.1% aqueous formic acid/acetonitrile, read-out: logP [a] = log P (HCOOH)) | chromatographic logP ([1]; neutral range, pH 7.8, aqueous ammonium hydrogencarbonate/acetonitrile, read-out: logP [b] = log P (neutral)) | efficacy (aphids killed) (Myzus persicae; 750 g/ha) | efficacy (kill of aphids) (Aphis gossypii) | efficacy (whiteflies killed) (Bemisia tabaci; 20 ppm) | efficacy (planthoppers killed) (Nilaparvata lugens [3]) | efficacy (kill of leafhoppers) (Nephotettix cincticeps)
FC(F)(F)c1ccc2nc(-c3ccncc3)cnc2c1 [Example I-7] | 2.17 | 2.75 | 80% | 90% | 100% | 90% | 100% | 90% | – | – | – | – | – | – | –
Cc1cnccc1-c1cnc2cc(C(F)(F)F)ccc2n1 [Example I-2, 2-(3-Methylpyridin-4-yl)-6-(trifluoromethyl)quinoxaline] | – | – | 85% | – | – | – | – | – | 2.14 | 2.89 | 90% | 80% | 100% | 100% | 100%
FC1(F)Oc2cc3ncc(-c4ccncc4)nc3cc2O1 [Example I-74] | 1.98 | – | – | 90% | – | – | – | – | – | – | – | – | – | – | –
